Measured values from publication PMC8151276, “An Integrated Approach toward NanoBRET Tracers for Analysis of GPCR Ligand Engagement” (Molecules, 2021).

Assays:
RXFP1 = target: T1, RXFP1 (Homo sapiens, UniProt Q9HBX9); assay: NanoBRET screen HiBiT-RXFP1 in HEK293; format: binding
T1 construct: purchased Promega (in-house HiBiT-GPCR construct library, NanoBRET)
T1 sequence (Q9HBX9 1-757): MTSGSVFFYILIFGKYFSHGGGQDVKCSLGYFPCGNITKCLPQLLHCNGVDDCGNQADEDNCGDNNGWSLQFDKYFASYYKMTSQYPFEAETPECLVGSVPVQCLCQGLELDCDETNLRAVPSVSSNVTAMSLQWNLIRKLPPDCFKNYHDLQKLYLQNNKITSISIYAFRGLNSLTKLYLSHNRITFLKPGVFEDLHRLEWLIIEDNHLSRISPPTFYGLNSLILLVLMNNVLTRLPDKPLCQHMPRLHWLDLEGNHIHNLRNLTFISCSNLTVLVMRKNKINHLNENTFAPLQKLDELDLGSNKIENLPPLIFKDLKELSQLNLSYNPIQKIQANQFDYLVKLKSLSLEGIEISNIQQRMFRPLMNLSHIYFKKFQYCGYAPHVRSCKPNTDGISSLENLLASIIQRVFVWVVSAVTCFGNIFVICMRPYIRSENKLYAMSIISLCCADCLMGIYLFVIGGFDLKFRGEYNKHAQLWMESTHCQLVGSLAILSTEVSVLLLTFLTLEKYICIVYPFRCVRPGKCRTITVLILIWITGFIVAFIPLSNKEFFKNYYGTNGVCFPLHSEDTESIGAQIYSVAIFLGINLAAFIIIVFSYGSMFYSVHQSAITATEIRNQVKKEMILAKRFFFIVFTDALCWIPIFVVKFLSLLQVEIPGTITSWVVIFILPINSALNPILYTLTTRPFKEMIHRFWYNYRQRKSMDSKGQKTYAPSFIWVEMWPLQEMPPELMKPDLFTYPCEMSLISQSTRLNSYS
Procedure: (§1) Each tracer candidate was screened across the entire library of HiBiT-GPCR constructs using NanoBRET as the detection modality. As depicted in Figure 4A, the specificity of interactions was evaluated through decrease in BRET due to competitive displacement of a bound tracer by excess parental compound. Each tracer was analyzed for binding to each HiBiT-GPCR fusion in the absence and in the presence of competing parental compound. Briefly, HEK293 cells were transfected with HiBiT-GPCR constructs diluted into promoterless DNA to reduce expression and maximize translocation to the cell surface. Each tracer candidate was then screened at concentrations of 1 μM and 0.1 μM across cells expressing these fusions. Cells were treated for 1.5 h with tracer either alone or in the presence of 20 μM competing parental compound (i.e., control). BRET was measured upon addition of purified LgBiT and subsequent complementation with HiBiT genetically fused to a GPCR. The specificity of interactions was assessed through a decrease in BRET signal due to competitive displacement of the bound tracer. To further gauge the robustness of these interactions, the fold response over the control (i.e., BRETtracer/BRETcontrol) was calculated. We chose a 1.5-fold response, which translates to ≥7-fold signal over noise as the minimal threshold required to score an interaction as positive.
(§2) HiBiT-GPCR DNA constructs were diluted in 10 mM Tris pH 8 to a final concentration of 0.01 μg/μL, arrayed in 96-well plates and stored at −20 °C. For transfection, HEK293 cells were suspended in Opti-MEM (without phenol red) supplemented with 2% fetal bovine serum (Seradigm) and 100 units/mL penicillin–streptomycin (Gibco) at a final concentration of 220,000 cells/mL and dispensed into white 96-well plates at 90 μL/well. Subsequent transfections and screens were carried using an Agilent Bravo Automated Liquid Handling Platform. First, the 96-well HiBiT DNA arrays were diluted 25-fold in Opti-MEM (without serum or phenol red) to a final concentration of 0.0004 μg/μL and 20 μL of the diluted DNAs were transferred into new 96-well plates. Next, promoterless carrier DNA (1 μg/μL) was diluted 25-fold (0.04 μg/μL) and then dispensed into the diluted arrays at 20 μL/well. Following brief mixing, Viafect transfection reagent (Promega) diluted 16-fold into Opti-MEM was dispensed into the plates at 40 μL/well. After mixing by pipetting, plates were incubated for 10 min on the pipetting station deck. The DNA-transfection reagent complexes were then added to plates containing cells. To facilitate the screen, 10 μL of DNA-transfection reagent complexes were added in duplicates to the top 4 and bottom 4 rows, resulting in two identical 48-well arrays per plate. Plates with transfected cells were incubated for 18–20 h at 37 °C/5% CO2. A screen of each tracer across the entire library using two different concentrations requires duplicate plates of transfected cells. Depending on the number of tracers being screened, transfections can be scaled up using the same ratios. The next day, for each tracer, four 20× screening solutions in tracer dilution buffer (Promega) were prepared: two duplicates at final concentration of 20 μM and two duplicates at a final concentration of 2 μM. […] The four resulting solutions were diluted 4-fold in Opti-MEM without serum or phenol red to generate 5× solutions (5 µM and 0.5 µM tracer +/− 100 μM competing compound). To screen the library, a BioTek MultiFlo FX liquid dispenser was used to dispense 22.5 µL of tracer solution to the top 4 rows and 22.5 µL tracer + competing compound solution to the 4 bottom rows. Plates were briefly mixed on an orbital shaker and incubated for 1.5 h at room temperature. […] Plates were briefly mixed on an orbital shaker and incubated for 15 min to allow complementation.

CHRM5 = target: T2, CHRM5 (Homo sapiens, UniProt P08912); assay: NanoBRET screen HiBiT-CHRM5 in HEK293; format: binding
T2 construct: purchased Promega (in-house HiBiT-GPCR construct library, NanoBRET)
T2 sequence (P08912 1-532): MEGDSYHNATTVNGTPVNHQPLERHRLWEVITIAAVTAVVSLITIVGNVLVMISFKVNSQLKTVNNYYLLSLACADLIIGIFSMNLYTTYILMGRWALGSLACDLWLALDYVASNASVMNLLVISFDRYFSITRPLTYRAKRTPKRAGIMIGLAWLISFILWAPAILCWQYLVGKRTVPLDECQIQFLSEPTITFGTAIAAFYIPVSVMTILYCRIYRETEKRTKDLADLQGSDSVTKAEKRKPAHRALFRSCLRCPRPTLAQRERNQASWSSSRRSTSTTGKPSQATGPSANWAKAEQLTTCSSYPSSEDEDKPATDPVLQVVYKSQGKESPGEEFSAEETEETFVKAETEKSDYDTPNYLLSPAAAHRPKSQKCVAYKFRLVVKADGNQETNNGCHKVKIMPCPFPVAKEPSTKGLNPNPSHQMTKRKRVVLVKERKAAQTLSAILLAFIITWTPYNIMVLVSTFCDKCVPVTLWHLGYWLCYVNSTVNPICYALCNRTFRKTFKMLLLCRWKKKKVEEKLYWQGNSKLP
Procedure: as §1, §2

Compound	NanoBRET Fold Response (RXFP1; RXFP1, tracer 0.1μM)	NanoBRET Fold Response (RXFP1; RXFP1, tracer 1μM)	NanoBRET Fold Response (CHRM5; CHRM5, tracer 0.1μM)	NanoBRET Fold Response (CHRM5; CHRM5, tracer 1μM)	further results
Cc1nc2n(c(=O)c1CCN1CCC(c3noc4cc(F)ccc34)CC1)CCCC2OC(=O)NCCOCCOCCOCCOCCNC(=O)CCc1ccc2n1[B-](F)(F)[N+]1=C(c3ccc[nH]3)C=CC1=C2 (stereo not drawn) [Risperidone-2-NB590]	1.26	0.90	1.07	0.95	
CCOC(=O)c1cc(C#N)c(N2CCC(C(=O)NS(=O)(=O)Cc3ccccc3/C=C/C(=O)NCCNC(=O)CCc3ccc4n3[B-](F)(F)[N+]3=C(c5ccc[nH]5)C=CC3=C4)CC2)nc1C [AZD1283-1-NB590]					NanoBRET Fold Response (RXFP1; RXFP1, 0.1μM): 1.16; NanoBRET Fold Response (RXFP1; RXFP1, 1μM): 0.49; NanoBRET Fold Response (CHRM5; CHRM5, 0.1μM): 1.08; NanoBRET Fold Response (CHRM5; CHRM5, 1μM): 1.08
Cc1cc2c(s1)Nc1ccccc1N=C2N1CCN(CCCNC(=O)CCOCCOCCOCCOCCNC(=O)CCc2ccc3n2[B-](F)(F)[N+]2=C(c4ccc[nH]4)C=CC2=C3)CC1 [Olanzapine-a-2-NB590]	1.25	0.79	1.05	1.00	
COc1ccccc1N1CCN(CCCCN2C(=O)c3ccc(CNC(=O)CCOCCNC(=O)c4ccc(CNC(=O)CCc5ccc6n5[B-](F)(F)[N+]5=C(c7ccc[nH]7)C=CC5=C6)cc4)cc3C2=O)CC1 [NAN-190-3-NB590]	0.88	0.90	1.00	1.24	
CC(C)N(CC[C@H](c1ccccc1)c1cc(CCNC(=O)CCOCCOCCOCCOCCNC(=O)CCc2ccc3n2[B-](F)(F)[N+]2=C(c4ccc[nH]4)C=CC2=C3)ccc1O)C(C)C [Tolterodine-2-NB590]	1.11	0.81	3.27	2.82	
CN(C)CCC=C1c2ccccc2CCc2ccc(C(=O)NCCNC(=O)CCOCCOCCOCCOCCNC(=O)CCc3ccc4n3[B-](F)(F)[N+]3=C(c5ccc[nH]5)C=CC3=C4)cc21 [Amitriptyline-b-2-NB590]					NanoBRET Fold Response (RXFP1; tracer at 0.1μM): 0.90; NanoBRET Fold Response (RXFP1; tracer at 1μM): 1.13; NanoBRET Fold Response (CHRM5; tracer at 0.1μM, listed as amitriptyline-b-2-NB590): 3.47; NanoBRET Fold Response (CHRM5; tracer at 1μM, listed as amitriptyline-b-2-NB590): 4.23
O=C(CCOCCOCCOCCOCCNC(=O)CCc1ccc2n1[B-](F)(F)[N+]1=C(c3ccc[nH]3)C=CC1=C2)NCCCN1CCN(C2=Nc3ccccc3Oc3ccc(Cl)cc32)CC1 [Loxapine-a-2-NB590]	0.94	0.80	0.99	0.89	
CN(C)CCC=C1c2ccccc2CCc2ccc(C(=O)NCCNC(=O)CCOCCOCCOCCOCCNC(=O)CCc3ccc4n3[B-](F)(F)[N+]3=C(c5ccc[nH]5)C=CC3=C4)cc21 [Amitriptyline-a-2-NB590]					NanoBRET Fold Response (CHRM5; tracer at 1μM): 1.23
O=C(CCc1ccc2n1[B-](F)(F)[N+]1=C(c3ccc[nH]3)C=CC1=C2)NCCOCCOCCNC(=O)OCCOCCN1CCN(C2=Nc3ccccc3Sc3ccccc32)CC1 [Quetiapine-a-2-NB590]	0.53	1.01	1.18	1.36	
COc1ccccc1N1CCN(CCCCN2C(=O)c3ccc(CNC(=O)CCOCCOCCOCCOCCNC(=O)CCc4ccc5n4[B-](F)(F)[N+]4=C(c6ccc[nH]6)C=CC4=C5)cc3C2=O)CC1 [NAN-190-2-NB590]	0.78	0.92	0.90		
CN1CCN(C2=Nc3cc(Cl)ccc3N(CC(=O)NCCOCCOCCOCCOCCNC(=O)CCc3ccc4n3[B-](F)(F)[N+]3=C(c5ccc[nH]5)C=CC3=C4)c3ccccc32)CC1 [Clozapine-c-2-NB590]					NanoBRET Fold Response (RXFP1; RXFP1, 0.1μM tracer): 0.85; NanoBRET Fold Response (RXFP1; RXFP1, 1μM tracer): 1.27; NanoBRET Fold Response (CHRM5; CHRM5, 0.1μM tracer): 1.00; NanoBRET Fold Response (CHRM5; CHRM5, 1μM tracer): 0.86
COc1ccc2[nH]c(-c3ccc(CNC(=O)CCOCCOCCOCCOCCNC(=O)CCc4ccc5n4[B-](F)(F)[N+]4=C(c6ccc[nH]6)C=CC4=C5)cc3)c(CCNC(C)=O)c2n1 [AzomelatoninICO9-2-NB590]					NanoBRET Fold Response (RXFP1; 0.1μM tracer): 1.23; NanoBRET Fold Response (RXFP1; 1μM tracer): 1.24; NanoBRET Fold Response (CHRM5; 0.1μM tracer): 0.90; NanoBRET Fold Response (CHRM5; 1μM tracer): 0.97
O=C(CCOCCOCCOCCOCCNC(=O)CCc1ccc2n1[B-](F)(F)[N+]1=C(c3ccc[nH]3)C=CC1=C2)NCCCN1CCN(C2=Nc3cc(Cl)ccc3Nc3ccccc32)CC1 [Clozapine-a-2-NB590]					NanoBRET Fold Response (RXFP1; RXFP1, 0.1μM tracer): 1.12; NanoBRET Fold Response (RXFP1; RXFP1, 1μM tracer): 1.23; NanoBRET Fold Response (CHRM5; CHRM5, 0.1μM tracer): 1.10; NanoBRET Fold Response (CHRM5; CHRM5, 1μM tracer): 0.91
CCCn1c(=O)c2[nH]c(-c3ccc(OCC(=O)NCCNC(=O)CCOCCNC(=O)c4ccc(CNC(=O)CCc5ccc6n5[B-](F)(F)[N+]5=C(c7ccc[nH]7)C=CC5=C6)cc4)cc3)nc2n(CCC)c1=O [XAC-3-NB590]	1.04	0.93	0.98	0.86	
O=C(CCc1ccc2n1[B-](F)(F)[N+]1=C(c3ccc[nH]3)C=CC1=C2)NCc1ccc(C(=O)NCCOCCOCCNCC(O)COc2cccc3ccccc23)cc1 (stereo not drawn) [Propranolol-3-NB590]					NanoBRET Fold Response (RXFP1; RXFP1, 0.1μM): 0.90; NanoBRET Fold Response (RXFP1; RXFP1, 1μM): 0.90; NanoBRET Fold Response (CHRM5; CHRM5, 0.1μM): 1.00; NanoBRET Fold Response (CHRM5; CHRM5, 1μM): 1.03
CN(CCC=C1c2ccccc2CCc2ccccc21)C(=O)CCOCCOCCOCCOCCNC(=O)CCc1ccc2n1[B-](F)(F)[N+]1=C(c3ccc[nH]3)C=CC1=C2 [Amitriptyline-e-2-NB590]					NanoBRET Fold Response (CHRM5; tracer at 1μM): 1.14
